Where “and” joins values, the source holds several entries; their conditions need not be identical. Equal values may be shown once. Entries after “also recorded” stand apart in the source; their conditions may differ.
What was measured:
[1] = administered orally (6a); cited from earlier work
[2] = system: BP3 cell line; assay: Annexin V-FITC and propidium iodide apoptosis assay, BP3; format: cell-based, human; settings: for EC50: Homo sapiens, BP3, 24 h, Annexin V-FITC and propidium iodide assay, 1 day
[3] = EC50 values of FIG. 3(B); settings: test not named
[4] = system: primary CLL cells; assay: Annexin-V apoptosis assay, primary CLL cells; format: cell-based, human
[5] = system: H1299 cell line; assay: ATP-LITE cell viability assay, H1299; format: cell-based; settings: Homo sapiens, NCI-H1299, 72 h, 3 days
Method: (§1) The activity of the compounds of Formula I against human cancer cell lines (PC3ML, H460, H1299, RS11846) may be assessed by using the ATP-LITE assay (PerkinElmer). All cells are seeded in either F12 or RPMI1640 medium with 5 mM L-glutamine supplemented with 5% fetal bovine serum (Mediatech Inc.), penicillin and streptomycin (Omega). For maintenance, cells are cultured in 5% FBS. Cells plated into 96 well plates at varying initial densities depending on doubling time. H460 and H1299 plated at 2000 cells/well, A549 and PC3 at 3000 cells/well, and […] at 10,000 cells/well. The compounds are diluted to final concentrations with 0.1% DMSO. Prior to dispensing the compounds onto cells, fresh 5% media is placed into the wells. Administration of compounds occurs 24 hours after seeding into the fresh media. Cell viability may be evaluated using ATP-LITE reagent (PerkinElmer) after 72 hours of treatment. Data are normalized to the DMSO control-treated cells using Prism version 5.01 (Graphpad Software).
(§2) The activity of the compounds against human cancer cell lines (PC3, H460, H1299) were assessed by using the ATP-LITE assay (PerkinElmer). All cells were seeded in either […] or RPMI1640 medium with 5 mM L-glutamine supplemented with 5% fetal bovine serum (Mediatech Inc.), penicillin and streptomycin (Omega). For maintenance, cells were cultured in 5% FBS. Cells plated into 96 well plates at varying initial densities depending on doubling time. H460 and H1299 plated at 2000 cells/well and PC3 at 3000 cells/well. Compounds were diluted to final concentrations with 0.1% DMSO. Prior to dispensing compounds onto cells, fresh 5% media was placed into wells. Administration of compounds occurred 24 hours after seeding into the fresh media. Cell viability was evaluated using ATP-LITE reagent (PerkinElmer) after 72 hours of treatment. Data were normalized to the DMSO control-treated cells using Prism version 5.01 (Graphpad Software).

[6] = system: PC3 cell line; assay: ATP-LITE cell viability assay, PC3; format: cell-based; settings: Homo sapiens, PC-3, 72 h, 3 days
Method: as §2

[7] = system: H460 cell line; assay: ATP-LITE cell viability assay, H460; format: cell-based; settings: Homo sapiens, NCI-H460, 72 h, 3 days
Method: as §1, §2

[8] = In vitro plasma stability; settings: for Plasma Stability (T = 40 mins): Table 4; for degraded after 1 hour incubation in rat plasma: rat plasma (preparations)
[9] = In vitro microsomal stability; settings: Table 4
[10] = system: RS4;11 cell line; assay: Annexin V-FITC and propidium iodide apoptosis assay, RS4;11; format: cell-based; settings: Homo sapiens, RS4-11, 24 h, 1 day
[11] = system: PPC-1 xenograft tumors; assay: PPC-1 tumor xenograft study in nude mice
[12] = target: Bcl-XL (Homo sapiens (Human), UniProt Q07817); assay: Fluorescence polarization competitive binding assay (FPA), Bcl-XL; settings: displacement of BH3 peptide
Chain of Bcl-XL (Q07817 1-211): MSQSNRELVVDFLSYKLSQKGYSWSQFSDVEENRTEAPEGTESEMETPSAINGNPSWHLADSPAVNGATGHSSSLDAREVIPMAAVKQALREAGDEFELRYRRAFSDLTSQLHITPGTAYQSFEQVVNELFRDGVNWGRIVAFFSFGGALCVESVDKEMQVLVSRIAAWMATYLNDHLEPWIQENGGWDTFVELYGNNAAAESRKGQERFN

Row | EC50 [5] [µM] | EC50 [6] [µM] | EC50 [7] [µM] | Compound | Plasma Stability (T = 40 mins) [8] [%] | other results
1 |  |  |  | Cc1cc2c(C(C)C)c(O)c(O)c(C=O)c2c(O)c1-c1c(C)cc2c(C(C)C)c(O)c(O)c(C=O)c2c1O [(−) 1] |  | maximum tolerated dose (MTD) [1]: 50 mg/kg
2 |  |  |  | CN(C)CC[C@H](CSc1ccccc1)Nc1ccc(S(=O)(=O)NC(=O)c2ccc(N3CCN(Cc4ccccc4-c4ccc(Cl)cc4)CC3)cc2)cc1[N+](=O)[O-] [ABT-737, reference compound] |  | cell (cytotoxic) activity against BP3 cell lines ([2]; result in words): no cell activity; also recorded: no cytotoxic activity
3 |  |  |  | Cc1cc2c(C(=O)Cc3ccccc3)c(O)c(O)cc2c(O)c1-c1c(C)cc2c(C(=O)Cc3ccccc3)c(O)c(O)cc2c1O [BI79D10] |  | EC50 [3]: 0.36 µM
4 | 1.32 ± 0.3 | 2.4 ± 0.24 | 2.2 ± 0.76 | CC1=C(C2=C(C)C(=O)c3c(cc(O)c(O)c3CCC3CCCCC3)C2=O)C(=O)c2cc(O)c(O)c(CCC3CCCCC3)c2C1=O [Compound 6d, 5,5′-bis(2-cyclohexylethyl)-6,6′,7,7′-tetrahydroxy-3,3′-dimethyl-2,2′-binaphthyl-1,1′,4,4′-tetraone] | 74 | Microsomal Stability (T = 40 mins) [9]: 98%
5 |  |  |  | CC1=C(C2=C(C)C(=O)c3c(cc(O)c(O)c3CCc3ccc(C)cc3)C2=O)C(=O)c2cc(O)c(O)c(CCc3ccc(C)cc3)c2C1=O [Compound 6f, 6,6′,7,7′-tetrahydroxy-3,3′-dimethyl-5,5′-bis(4-methylphenethyl)-2,2′-binaphthyl-1,1′,4,4′-tetraone] | 86 | LD50 primary CLL samples ([4]; six CLL samples from six different patients): 1.0 to 16.9 µM; LD50 primary CLL samples ([4]; two primary CLL samples, one day Annexin-V apoptosis assay): 10 µM and 15 µM; degraded after 1 hour incubation in rat plasma [8]: 14%; average body weight losses during the treatment ([11]; 50 mg/kg i.p.): 6.8%; signs of toxicity ([11]; 50 mg/kg i.p.): no observable signs of toxicity; weight loss in first week ([11]; 50 mg/kg i.p. three times in first week): ~5%
6 | 2.16 ± 0.27 | 2 ± 0.17 | 1.62 ± 0.16 | CC1=C(C2=C(C)C(=O)c3c(cc(O)c(O)c3CCC(C)(C)c3ccccc3)C2=O)C(=O)c2cc(O)c(O)c(CCC(C)(C)c3ccccc3)c2C1=O [Compound 6h, 6,6′,7,7′-tetrahydroxy-3,3′-dimethyl-5,5′-bis(3-methyl-3-phenylbutyl)-2,2′-binaphthyl-1,1′,4,4′-tetraone] |  | 
7 |  |  |  | CC1=C(C2=C(C)C(=O)c3c(cc(O)c(O)c3Cc3ccccc3)C2=O)C(=O)c2cc(O)c(O)c(Cc3ccccc3)c2C1=O [Compound 6i, 5,5′-dibenzyl-6,6′,7,7′-tetrahydroxy-3,3′-dimethyl-2,2′-binaphthyl-1,1′,4,4′-tetraone] | 95 | degraded after 1 hour incubation in rat plasma [8]: 5%; IC50 [12]: 0.16 to 0.63 µM
8 | 2.38 ± 0.21 | 8.99 ± 2.49 | 1.44 ± 0.2 | CC1=C(C2=C(C)C(=O)c3c(cc(O)c(O)c3CCc3ccc(OC(F)(F)F)cc3)C2=O)C(=O)c2cc(O)c(O)c(CCc3ccc(OC(F)(F)F)cc3)c2C1=O [Compound 6j, 6,6′,7,7′-tetrahydroxy-3,3′-dimethyl-5,5′-bis(4-(trifluoromethoxy)phenethyl)-2,2′-binaphthyl-1,1′,4,4′-tetraone] |  | 
9 | 1.91 ± 0.17 | 2.62 ± 0.31 | 1.48 ± 0.02 | CC1=C(C2=C(C)C(=O)c3c(cc(O)c(O)c3CCCc3ccc(F)cc3)C2=O)C(=O)c2cc(O)c(O)c(CCCc3ccc(F)cc3)c2C1=O [Compound 6k, 5,5′-bis(3-(4-fluorophenyl)propyl)-6,6′,7,7′-tetrahydroxy-3,3′-dimethyl-2,2′-binaphthyl-1,1′,4,4′-tetraone] |  | 
10 |  |  |  | CC1=C(C2=C(C)C(=O)c3c(cc(O)c(O)c3Cc3ccc(Cl)cc3)C2=O)C(=O)c2cc(O)c(O)c(Cc3ccc(Cl)cc3)c2C1=O [Compound 6l, 5,5′-bis(4-chlorobenzyl)-6,6′,7,7′-tetrahydroxy-3,3′-dimethyl-2,2′-binaphthyl-1,1′,4,4′-tetraone] |  | IC50 [12]: 0.16 to 0.63 µM
11 | 10.3 ± 3.84 | 2.97 ± 0.98 | 0.98 ± 0.15 | CC1=C(C2=C(C)C(=O)c3c(cc(O)c(O)c3Cc3ccc(-c4ccccc4)cc3)C2=O)C(=O)c2cc(O)c(O)c(Cc3ccc(-c4ccccc4)cc3)c2C1=O [Compound 6m, 5,5′-bis(biphenyl-4-ylmethyl)-6,6′,7,7′-tetrahydroxy-3,3′-dimethyl-2,2′-binaphthyl-1,1′,4,4′-tetraone] |  | 
12 | > 30 | 5.44 ± 0.34 | 6.16 ± 1.48 | CC1=C(C2=C(C)C(=O)c3c(cc(O)c(O)c3C(=O)NCc3cccc(C)c3)C2=O)C(=O)c2cc(O)c(O)c(C(=O)NCc3cccc(C)c3)c2C1=O [Compound 8b, 6,6′,7,7′-tetrahydroxy-3,3′-dimethyl-N^5,N^5′-bis(3-methylbenzyl)-1,1′,4,4′-tetraoxo-1,1′,4,4′-tetrahydro-2,2′-binaphthyl-5,5′-dicarboxamide] |  | 
13 |  |  |  | CCc1ccc(CCNC(=O)c2c(O)c(O)cc3c2C(=O)C(C)=C(C2=C(C)C(=O)c4c(cc(O)c(O)c4C(=O)NCCc4ccc(CC)cc4)C2=O)C3=O)cc1 [Compound 8c, N^5,N^5′-Bis(4-ethylphenethyl)-6,6′,7,7′-tetrahydroxy-3,3′-dimethyl-1,1′,4,4′-tetraoxo-1,1′,4,4′-tetrahydro-2,2′-binaphthyl-5,5′-dicarboxamide] |  | IC50 [12]: 0.16 to 0.63 µM
14 |  |  |  | Cc1cc2c(C(C)C)c(O)c(O)c(C=O)c2c(O)c1-c1c(C)cc2c(C(C)C)c(O)c(O)c(C=O)c2c1O [Gossypol, 1,1′,6,6′,7,7′-Hexahydroxy-5,5′-diisopropyl-3,3′-dimethyl-2,2′-binaphthyl-8,8′-dicarboxaldehyde] |  | mortality in first week ([11]; 25 mg/kg, i.p.): died

Row | Compound | EC50 [5] [µM] | EC50 [6] [µM] | EC50 [7] [µM] | Plasma Stability (T = 40 mins) [8] [%] | other results
15 | CC1=C(C2=C(C)C(=O)c3c(cc(O)c(O)c3CC3CCCC3)C2=O)C(=O)c2cc(O)c(O)c(CC3CCCC3)c2C1=O [Compound 6c, 5,5′-bis(cyclopentylmethyl)-6,6′,7,7′-tetrahydroxy-3,3′-dimethyl-2,2′-binaphthyl-1,1′,4,4′-tetraone] | 2.32 ± 0.51 | 5.5 ± 0.74 | 0.7 ± 0.34 |  | LD50 primary CLL samples ([4]; comparison of 6c with 6a): 6.5 µM
16 | CC1=C(C2=C(C)C(=O)c3c(cc(O)c(O)c3CCc3ccccc3)C2=O)C(=O)c2cc(O)c(O)c(CCc3ccccc3)c2C1=O [Compound 6e, 6,6′,7,7′-tetrahydroxy-3,3′-dimethyl-5,5′-diphenethyl-2,2′-binaphthyl-1,1′,4,4′-tetraone] | 0.85 ± 0.36 | 1.4 ± 0.14 | 1.04 ± 0.13 | 81 | EC50 [10]: 4.75 ± 0.01 µM; EC50 [2]: 8.72 ± 2.53 µM; Microsomal Stability (T = 40 mins) [9]: 89%
17 | CC1=C(C2=C(C)C(=O)c3c(cc(O)c(O)c3CCCc3ccccc3)C2=O)C(=O)c2cc(O)c(O)c(CCCc3ccccc3)c2C1=O [Compound 6g, 6,6′,7,7′-tetrahydroxy-3,3′-dimethyl-5,5′-bis(3-phenylpropyl)-2,2′-binaphthyl-1,1′,4,4′-tetraone] | 1.53 ± 0.41 | 1.3 ± 0.18 | 0.92 ± 0.09 | 87 | EC50 [10]: 3.83 ± 0.7 µM; Microsomal Stability (T = 40 mins) [9]: 88%
18 | CC1=C(C2=C(C)C(=O)c3c(cc(O)c(O)c3C(=O)Cc3ccccc3)C2=O)C(=O)c2cc(O)c(O)c(C(=O)Cc3ccccc3)c2C1=O [Compound 7, 6,6′,7,7′-Tetrahydroxy-3,3′-dimethyl-5,5′-bis(2-phenylacetyl)-2,2′-binaphthyl-1,1′,4,4′-tetraone] | > 30 | 5.44 ± 0.24 | 7.38 ± 1.07 |  | EC50 [2]: 9.58 ± 4.16 µM; IC50 [12]: 0.16 to 0.63 µM
19 | CC1=C(C2=C(C)C(=O)c3c(cc(O)c(O)c3C(=O)NCC(C)c3ccccc3)C2=O)C(=O)c2cc(O)c(O)c(C(=O)NCC(C)c3ccccc3)c2C1=O (centres unmarked) [Compound 8a, 6,6′,7,7′-Tetrahydroxy-3,3′-dimethyl-1,1′,4,4′-tetraoxo-N^5,N^5′-bis(2-phenylpropyl)-1,1′,4,4′-tetrahydro-2,2′-binaphthyl-5,5′-dicarboxamide] | > 30 |  |  | 91 | Microsomal Stability (T = 40 mins) [9]: 71%; IC50 [12]: 0.16 to 0.63 µM

— patent US8937193B2, “Apogossypolone derivatives as anticancer agents” (Sanford-Burnham Medical Research Institute, priority 2009, dated 2015)
